Data published in patent US20020042079A1, “METHODS AND AGENTS FOR MEASURING AND CONTROLLING MULTIDRUG RESISTANCE” (priority 1994, published 2002).

What was measured:
MDA-A1 cells = test: Acridine orange labeling of acidic compartments; type: cell-based, human; details: 10 μM Tamoxifen, estrogen receptor negative cells
Protocol: Labeling of Cells with Acridine Orange: To examine intracellular acidic compartments, acridine orange (6 μM in medium from a 10 mM stock in water) was added directly to cells in the Lab-Tek chambers and the cells were incubated for 15 minutes. Cells in the presence of acridine orange were then examined utilizing an excitation at 488 nm and dual emission confocal images were simultaneously recorded using both a 530-30 band pass barrier filter (green fluorescence) and a 605 nm long pass barrier filter (red fluorescence). Optical sections of the fluorescent samples were recorded at 0.5 micron intervals with a 60×oil immersion objective.
There is red fluorescence in punctate cytoplasmic organelles and in a perinuclear region.

MCF-7adr cells = test: Bodipy-ceramide and Bodipy-lactalbumin labeling of TGN and pericentriolar recycling compartment; type: cell-based, human; details: tamoxifen treatment of MCF-7adr cells
Source text: Endocytotic pathway (fourth row): To examine internalization, Bodipy-lactalbumin (Bodipy-Lac, Molecular Probes, Eugene, Oreg.) was used as a fluid phase marker.
Conversion of Bodipy-ceramide to Bodipy-sphingomyelin (in cis-Golgi) is associated with the movement of the newly synthesized fluorescent lipid to the trans-Golgi network (TGN). As the Bodipy-sphingomyelin concentration increases within the TGN and secretory vesicles, a long wavelength shift in fluorescence occurs that results in red fluorescent structures (TGN and secretory vesicles) against a green fluorescent background. […] To examine internalization, Bodipy-lactalbumin (Bodipy-Lac, Molecular Probes, Eugene, Oreg.) was used as a fluid phase marker.

## CC/C(=C(\c1ccccc1)c1ccc(OCCN(C)C)cc1)c1ccccc1 [Tamoxifen]
MDA-A1 cells
  red acridine orange fluorescence after Tamoxifen: substantial reduction in the red acridine orange fluorescence
MDA-A1 cells; listed as tamoxifen
  red acridine orange fluorescence after Tamoxifen: substantial decrease in the red acridine orange fluorescence
MCF-7adr cells
  TGN structure (Bodipy-ceramide labeling): produces a similar fragmentation of TGN structure
  structure of the PRC (bodipy-lactalbumin labeling): disrupts the structure of the PRC
